According to article PMC11728683, “Colon-Targeted Poly(ADP-ribose) Polymerase Inhibitors Synergize Therapeutic Effects of Mesalazine Against Rat Colitis Induced by 2,4-Dinitrobenzenesulfonic Acid” (Pharmaceutics, 2024):
Entries after “also recorded” stand apart in the source; their conditions may differ. Each block holds one compound with its values, some of them ahead of it.

Assays:
PARP = tested on: PARP; set-up: method as in PMID 30196390, PMID 17235412; conditions: cited from earlier work
[1] = Distribution coefficient (log D6.8), pH 6.8 isotonic phosphate buffer/n-octanol; assay type: physicochemical; conditions: n-octanol/pH 6.8 isotonic phosphate buffer; 1-octanol/isotonic phosphate buffer (pH 6.8)
Procedure: Distribution coefficients (log D6.8) of the PARP inhibitors and their derivatives were measured using a pH 6.8 isotonic phosphate buffer/n-octanol system, as described in a previous paper.

[2] = tested on: murine macrophage RAW264.7 cells challenged with LPS; assay: LPS-mediated induction of iNOS and COX-2 in RAW264.7 cells (Western blot); assay type: cell-based; conditions: pretreated 1 h with 5-ASA (20 mM), 3-AB (1 mM), 5-AIQ (10 μM), then LPS 24 h
Procedure: Tissue samples (0.2 g/mL) were homogenized in pre-chilled radioimmunoprecipitation assay buffer (50 mM Tris-HCl [pH 7.4], 1 mM EDTA, 0.7% Na deoxycholate, 1% NP-40, 150 mM NaCl, 0.3 μM aprotinin, 1 μM pepstatin, and 1 mM phenylmethylsulfonyl fluoride). The homogenates were centrifuged at 10,000× g at 4 °C for 10 min, followed by agitation on ice for 30 min. Whole and nuclear cell lysates were prepared as described previously. The protein concentrations in the lysates were determined using bicinchoninic acid (Thermo Fisher Scientific, Waltham, MA, USA) according to the manufacturer’s instructions. Cell and tissue lysates were separated by SDS-PAGE on 10% and 7.5% gels. Nrf2, HO-1, cyclooxygenase-2 (COX-2), and inducible nitric oxide synthase (iNOS) proteins were detected using the following antibodies: anti-Nrf2 (sc-365949, Santa Cruz Biotechnology, Dallas, TX, USA), anti-HO-1 (sc-136961, Santa Cruz Biotechnology), anti-COX-2 (sc-365374, Santa Cruz Biotechnology), anti-iNOS (NOS-2) antibody (sc-7271, Santa Cruz Biotechnology), and secondary antibodies corresponding to the primary antibodies (Santa Cruz Biotechnology). Protein bands were visualized using SuperSignal chemiluminescence substrate (Thermo Fisher Scientific). α-Tubulin were detected using antibodies specific to each protein (Santa Cruz Biotechnology) as loading controls. […]

Caco-2 cell monolayer = assay: Cell permeability via Caco-2 cell monolayer; assay type: in vitro ADME; conditions: 500 µM apical, concentration determined in basolateral compartment
Procedure: Caco-2 cells (4 × 10^5 per insert) were seeded and grown in Transwell 6-well inserts with a pore size of 0.4 μm (SPL Inc., Houston, TX, USA) until the transepithelial electrical resistance value (EMD Millipore, Billerica, MA, USA) reached 2000 Ω.cm^2. After removing the culture medium (DMEM) containing 1% penicillin/streptomycin from the basolateral and apical (insert) compartments, the apical compartment was filled with DMEM without phenol red (2 mL) containing PARP inhibitors and their derivatives (500 μM), whereas the basolateral compartment was filled with DMEM without phenol red (3 mL). At appropriate time intervals, the drug concentration in the basolateral compartment was determined by HPLC.

DNBS-induced rat colitis = DNBS-induced rat colitis model (anticolitic effects); assay type: in vivo
Procedure: DNBS-induced colitis was produced in rats as previously described. Two independent animal experiments were performed to evaluate the anticolitic effects of the drugs. For the first experiment, the rats were divided into the following five treatment groups (n = 5 per group): group 1 (normal group), oral gavage of 1.0 mL of PBS; group 2 (colitis group), oral gavage of 1.0 mL of PBS; group 3 (5-AIQ-treated colitis group), oral gavage of 5-AIQ (5 mg/kg) in 1.0 mL of PBS; group 4 [AQSA-Glu-treated colitis group (L)], oral gavage of AQSA-Glu (7.5 mg/kg, equivalent to 2.5 mg/kg of 5-AIQ) in 1.0 mL of PBS; and group 5 [AQSA-Glu-treated colitis group (H)], oral gavage of AQSA-Glu (15 mg/kg, equivalent to 5 mg/kg of 5-AIQ) in 1.0 mL of PBS. For the second experiment, the rats were divided into the following six treatment groups (n = 5 per group): group 1 (normal group), oral gavage of 1.0 mL of PBS; group 2 (colitis group), oral gavage of 1.0 mL of PBS; group 3 (SSZ-treated colitis group), oral gavage of SSZ (50 mg/kg) in 1.0 mL of PBS; group 4 (AQSA-Glu-treated colitis group), oral gavage of AQSA-Glu (15 mg/kg) in 1.0 mL of PBS; group 5 (mixture of AQSA-Glu + OSZ-treated colitis group), oral gavage of mixture of AQSA-Glu (15 mg/kg) and OSZ (19 mg/kg, half-equimolar to 50 mg/kg of SSZ) in 1.0 mL of PBS; and group 6 (ABSA-treated colitis group), oral gavage of ABSA (36 mg/kg, equivalent to 50 mg/kg of SSZ) in 1.0 mL of PBS. Three days after the induction of inflammation, each drug was orally administered to rats once daily, and the anticolitic effects were assessed 24 h after the sixth medication. The animal experiment scheme is shown in Supplementary Data S1. The colonic damage score was calculated using a scoring system modified from previously reported criteria. The modified scoring system is shown in Supplementary Data S2. Four independent observers who were blinded to the treatment conditions scored colonic damage according to the scoring system. Myeloperoxidase (MPO) activity in the distal colon (4 cm) was measured as described previously.
Tissue samples (0.2 g/mL) were homogenized in pre-chilled radioimmunoprecipitation assay buffer (50 mM Tris-HCl [pH 7.4], 1 mM EDTA, 0.7% Na deoxycholate, 1% NP-40, 150 mM NaCl, 0.3 μM aprotinin, 1 μM pepstatin, and 1 mM phenylmethylsulfonyl fluoride). The homogenates were centrifuged at 10,000× g at 4 °C for 10 min, followed by agitation on ice for 30 min. Whole and nuclear cell lysates were prepared as described previously. The protein concentrations in the lysates were determined using bicinchoninic acid (Thermo Fisher Scientific, Waltham, MA, USA) according to the manufacturer’s instructions.
Cell and tissue lysates were separated by SDS-PAGE on 10% and 7.5% gels. Nrf2, HO-1, cyclooxygenase-2 (COX-2), and inducible nitric oxide synthase (iNOS) proteins were detected using the following antibodies: anti-Nrf2 (sc-365949, Santa Cruz Biotechnology, Dallas, TX, USA), anti-HO-1 (sc-136961, Santa Cruz Biotechnology), anti-COX-2 (sc-365374, Santa Cruz Biotechnology), anti-iNOS (NOS-2) antibody (sc-7271, Santa Cruz Biotechnology), and secondary antibodies corresponding to the primary antibodies (Santa Cruz Biotechnology). Protein bands were visualized using SuperSignal chemiluminescence substrate (Thermo Fisher Scientific). α-Tubulin were detected using antibodies specific to each protein (Santa Cruz Biotechnology) as loading controls. Western blot images were quantified using Image Lab software (version 5.2 build 14; Bio-Rad, Hercules, CA, USA). The means of the quantified values are presented under each Western blot (n = 3 for cell experiments and n = 5 for animal experiments).
The levels of the inflammatory cytokine-induced neutrophil chemoattractant-3 (CINC-3) in the inflamed distal colon were determined using a CINC-3 ELISA kit (R&D Systems, Minneapolis, MN, USA). […]

[3] = Incubation in the cecal contents of rats (colonic activation); assay type: in vitro ADME, rat; conditions: 1 mM, 10% cecal contents, under nitrogen
Text: Male Sprague–Dawley rats (250–260 g) were euthanized using CO2 gas before a midline incision was made. The contents of the intestinal tract were collected from the small intestine and cecum obtained from each of three rats and were suspended in pH 6.8 isotonic phosphate buffer to prepare a 20% (w/v) suspension. To maintain anaerobic conditions in the cecum, the cecal contents were collected under a N2 atmosphere in an atmospheric bag (AtmosBag, Sigma, St. Louis, MO, USA). Derivatives of PARP inhibitors (2 mM) dissolved in pH 6.8 isotonic phosphate buffer (5 mL) were mixed with the cecal and small intestinal suspensions (5 mL) and then incubated at 37 °C. The cecal contents were incubated in nitrogen. At predetermined time intervals, a 0.5 mL portion of the mixture was transferred to a microtube and centrifuged at 10,000× g at 4 °C for 10 min. The supernatants (0.1 mL) were mixed with MeOH (0.9 mL), followed by centrifugation at 10,000× g at 4 °C for 7 min. The supernatants were filtered through a membrane filter (0.45 μm), and the concentrations of PARP inhibitors in the filtrates (20 μL) were analyzed using HPLC.

[4] = Drug concentration in the cecum after oral administration; assay type: in vivo, rat; conditions: rats
Procedure: Male Sprague–Dawley rats were fasted for 24 h but had access to water. 5-AIQ (10 mg/kg), AQSA-Glu (equivalent to 10 mg/kg 5-AIQ), 3-AB (17 mg/kg), and ABSA (equivalent to 17 mg/kg 3-AB) in PBS (1.0 mL) were administered to the rats by oral gavage. Blood samples were collected via cardiac puncture at 2, 4, and 8 h after the oral gavage. The blood samples were centrifuged at 10,000× g at 4 °C for 10 min to obtain the plasma (0.3 mL). The plasma (0.1 mL) was transferred to a centrifuge tube and mixed with methanol (0.9 mL). The supernatants were filtered through a membrane filter (0.45 μm), and then the filtrate (20.0 μL) was subjected to HPLC analysis. To determine drug concentrations in the cecum, cecal contents were collected at 2, 4, and 8 h after oral gavage and mixed with pH 6.8 isotonic phosphate buffer to make a 10% suspension, which was subjected to centrifugation at 10,000× g for 10 min at 4 °C. The supernatants (0.1 mL) were transferred to fresh microtubes, followed by the addition of MeOH (0.9 mL). After centrifugation at 10,000× g at 4 °C for 7 min and subsequent filtration through a membrane filter (0.45 μm), the concentrations of PARP inhibitors in the filtrates (20 μL) were analyzed using HPLC.

[5] = set-up: method as in PMID 31743034; conditions: SSZ at an effective dose; cited from earlier work
[6] = second experiment: SSZ 50 mg/kg, AQSA-Glu 15 mg/kg, AQSA-Glu 15 mg/kg + OSZ 19 mg/kg, ABSA 36 mg/kg, oral once per day, six treatments

Structure (SMILES): NC(=O)c1cccc(N)c1 [3-AB, 3-aminobenzamide, reference compound]
concentrations eliciting significant PARP inhibition (PARP): millimolar | logD [1]: 0.33

Structure (SMILES): Nc1ccc(O)c(C(=O)O)c1 [5-ASA, 5-aminosalicylic acid]
levels of iNOS and COX-2 proteins [2]: reduced the levels of iNOS and COX-2 proteins

Structure (SMILES): O=C(O)CC[C@H](NC(=O)c1cc(/N=N/c2cccc3cnccc23)ccc1O)C(=O)O [AQSA-Glu]
mucosal recovery (H&E staining of inflamed distal colon) (DNBS-induced rat colitis; first experiment, oral once per day for 6 days): greater mucosal recovery | colonic damage (colonic damage score) (DNBS-induced rat colitis; first experiment: AQSA-Glu 7.5 and 15 mg/kg (equivalent to 2.5 and 5 mg/kg of 5-AIQ) vs 5-AIQ 5 mg/kg, oral once per day for 6 days): substantially improved colonic damage in a dose-dependent manner and were more effective in ameliorating colonic damage than 5-AIQ | MPO activity and proinflammatory mediators (CINC-3, iNOS, COX-2) in inflamed distal colon (DNBS-induced rat colitis; first experiment: AQSA-Glu low and high doses vs 5-AIQ 5 mg/kg, oral once per day for 6 days): more effective in suppressing MPO activity and reducing proinflammatory mediators in the inflamed distal colon than 5-AIQ | effectiveness against rat colitis (DNBS-induced rat colitis; first experiment: AQSA-Glu low dose (2.5 mg/kg as 5-AIQ) vs 5-AIQ (5 mg/kg)): more effective against rat colitis than 5-AIQ | logD [1]: -1.83 | amount of 5-AIQ delivered to the cecum ([4]; AQSA-Glu 29.3 mg/kg (equivalent to 10 mg/kg of 5-AIQ) vs 5-AIQ 10.0 mg/kg, 2, 4, 8 h): much greater amount

Structure (SMILES): O=C(O)c1cc(/N=N/c2ccc(S(=O)(=O)Nc3ccccn3)cc2)ccc1O [SSZ, Sulfasalazine]
colonic concentrations of 5-ASA after oral administration [5]: millimolar levels

Continued, in another order:

logD [1]: 3.16
Structure (SMILES): Nc1cccc2cnccc12 [5-AIQ, 5-aminoisoquinoline, reference compound]
concentrations eliciting significant PARP inhibition (PARP): micromolar

transport via the Caco-2 cell monolayer (cell permeability) (Caco-2 cell monolayer): less cell-permeable than 3-AB | logD [1]: -1.07 | amount of 3-AB delivered to the cecum ([4]; ABSA 36 mg/kg (equivalent to 17 mg/kg of 3-AB) vs 3-AB 17 mg/kg, 2, 4, 8 h): much greater amount | amount and temporal pattern of 5-ASA accumulation in the cecum ([4]; ABSA 36 mg/kg vs equimolar SSZ 50 mg/kg, 2, 4, 8 h): comparable
Structure (SMILES): NC(=O)c1cccc(N=Nc2ccc(O)c(C(=O)O)c2)c1 [ABSA, 5-[(3-carbamoylphenyl)diazenyl]-2-hydroxybenzoic acid]
effectiveness against rat colitis (anticolitic effects) (DNBS-induced rat colitis; second experiment, same doses): more effective against rat colitis than SSZ and AQSA-Glu | colonic damage and mucosal recovery (DNBS-induced rat colitis; [6]): greater effectiveness in healing colonic injury, including mucosa, than the other single-treatment groups; also recorded: as effective against colonic damage as the mixture | inflammatory indices: MPO activity, CINC-3, iNOS and COX-2 in inflamed colon (DNBS-induced rat colitis; [6]): greater; also recorded: suppressed to a greater extent by ABSA than by SSZ or AQSA | conversion rate in cecal contents [3]: slightly higher than that of the derivatives of 5-AIQ

logD [1]: 0.31
Structure (SMILES): O=C(O)c1cc(N=Nc2cccc3cnccc23)ccc1O [AQSA, 2-hydroxy-5-(isoquinolin-5-yldiazenyl)benzoic acid]

logD [1]: -1.77
Structure (SMILES): O=C(O)C[C@H](NC(=O)c1cc(/N=N/c2cccc3cnccc23)ccc1O)C(=O)O [AQSA-Asp]
